The results in this text go back to patent EP0942911B1, “BENZOPYRANOPYRROLE AND BENZOPYRANOPYRIDINE ALPHA-1 ADRENERGIC COMPOUNDS” (Abbott Laboratories, priority 1996, dated 1998).

Holding throughout (assay): biochemical
Assay [1] addresses T1, α-1a adrenoreceptor (Bos taurus, UniProt P18130).
T1 sequence (P18130 1-466): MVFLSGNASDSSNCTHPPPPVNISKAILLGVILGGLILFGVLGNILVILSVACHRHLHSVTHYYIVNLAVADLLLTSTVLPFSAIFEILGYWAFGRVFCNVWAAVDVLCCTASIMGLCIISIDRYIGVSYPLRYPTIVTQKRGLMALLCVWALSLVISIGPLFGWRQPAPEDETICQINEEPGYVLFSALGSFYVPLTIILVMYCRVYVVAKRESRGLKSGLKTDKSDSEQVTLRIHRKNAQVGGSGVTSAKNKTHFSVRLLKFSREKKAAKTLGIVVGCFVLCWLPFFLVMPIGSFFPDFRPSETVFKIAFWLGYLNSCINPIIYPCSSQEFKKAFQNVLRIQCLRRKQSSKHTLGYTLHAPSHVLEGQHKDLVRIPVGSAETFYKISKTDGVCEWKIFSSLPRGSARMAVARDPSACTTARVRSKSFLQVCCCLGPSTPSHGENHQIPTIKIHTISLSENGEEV
It counts as binding, bovine. The settings on record: [3H]-prazosin radioligand; cloned receptor in LTK cell membranes; read-out: Radioligand Binding (Ki, nM) 1a (Bovine). In outline:
(§1)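 Stable LTK fibroblast lines carrying the bovine, hamster or rat α-1 subtype genes supply membranes, homogenized in Tris-HCl/EDTA at pH 7.4. A separate rat submaxillary gland preparation covers α-1A. Bound radioligand is quantified by liquid scintillation.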

For assay [2], the target named is T2, α-1b adrenoreceptor (Mesocricetus auratus, UniProt P18841).
T2 sequence (P18841 1-515): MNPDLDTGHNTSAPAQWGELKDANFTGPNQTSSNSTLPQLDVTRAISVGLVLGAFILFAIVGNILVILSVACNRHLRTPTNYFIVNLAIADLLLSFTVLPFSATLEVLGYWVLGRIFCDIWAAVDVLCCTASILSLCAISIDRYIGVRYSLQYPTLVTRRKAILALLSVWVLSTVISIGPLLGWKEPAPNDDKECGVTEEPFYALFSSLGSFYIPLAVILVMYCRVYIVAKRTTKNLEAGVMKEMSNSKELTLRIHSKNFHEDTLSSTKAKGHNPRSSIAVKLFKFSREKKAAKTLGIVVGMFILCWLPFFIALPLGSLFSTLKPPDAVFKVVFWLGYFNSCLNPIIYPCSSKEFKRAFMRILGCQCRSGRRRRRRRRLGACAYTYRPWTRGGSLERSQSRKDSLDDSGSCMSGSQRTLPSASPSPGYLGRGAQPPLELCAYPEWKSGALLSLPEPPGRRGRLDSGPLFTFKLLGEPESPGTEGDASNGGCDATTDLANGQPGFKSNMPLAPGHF
Type of assay: binding, hamster. The settings on record: [3H]-prazosin radioligand; cloned receptor in LTK cell membranes; read-out: Radioligand Binding (Ki, nM) 1b (Hamster). The gist of the method:
as §1

Assay [3] deals with T3, α-1d adrenoreceptor (Rattus norvegicus, UniProt P23944).
T3 sequence (P23944 1-561): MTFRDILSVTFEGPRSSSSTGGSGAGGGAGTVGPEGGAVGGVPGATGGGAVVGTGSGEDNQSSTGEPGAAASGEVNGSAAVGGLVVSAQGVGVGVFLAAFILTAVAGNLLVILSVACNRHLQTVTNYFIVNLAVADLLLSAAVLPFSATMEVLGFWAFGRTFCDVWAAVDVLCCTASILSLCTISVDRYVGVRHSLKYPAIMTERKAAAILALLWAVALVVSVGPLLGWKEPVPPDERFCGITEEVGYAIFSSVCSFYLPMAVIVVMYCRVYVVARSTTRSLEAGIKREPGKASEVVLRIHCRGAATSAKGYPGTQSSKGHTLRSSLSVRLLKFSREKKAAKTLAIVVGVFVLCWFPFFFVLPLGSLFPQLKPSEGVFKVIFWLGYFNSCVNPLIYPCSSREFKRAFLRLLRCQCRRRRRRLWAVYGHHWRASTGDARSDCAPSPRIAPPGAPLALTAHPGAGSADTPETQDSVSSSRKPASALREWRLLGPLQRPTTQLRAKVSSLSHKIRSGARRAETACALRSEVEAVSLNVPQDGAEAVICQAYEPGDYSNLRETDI
It counts as binding. The settings on record: [3H]-prazosin radioligand; cloned receptor in LTK cell membranes; read-out: Radioligand Binding (Ki, nM) 1d (Rat). The gist of the method: as §1

Structures can show the parent of a compound that is named as a salt.

As to `COc1cccc2c1[C@H]1CN(CCCCn3c(=O)[nH]c4c(sc5cccnc54)c3=O)C[C@H]1CO2` [Example 2, 3-[4-((3aS,9bS)-cis-9-Methoxy-1,2,3,3a,4,9b-hexahydro-[1]-benzopyrano[3,4-c]pyrrol-2-yl)butyl]-pyrido[2',3':4,5]thieno[3,2-d]pyrimidine-2,4(1H,3H)-dione hydrochloride], the Ki in assay [1] is 0.193 nM; in assay [2] it was 9.23 nM; in assay [3], 2.72 nM.

`COc1cccc2c1[C@@H]1CN(CCCCn3c(=O)[nH]c4c(sc5cccnc54)c3=O)C[C@H]1CO2` [Example 3, 3-[4-((3aS,9bR)-trans-9-Methoxy-1,2,3,3a,4,9b-hexahydro-[1]-benzopyrano[3,4-c]pyrrol-2-yl)butyl]-pyrido[2',3':4,5]thieno[3,2-d]pyrimidine-2,4(1H,3H)-dione hydrochloride]: the figures for the Ki in assay [1], in assay [2] and in assay [3] were 0.02 nM, 0.286 nM and 0.041 nM, respectively.

As to `COc1cccc2c1[C@@H]1CN(CCCCn3c(=O)[nH]c4c(sc5ncc(Cl)nc54)c3=O)C[C@H]1CO2` [Example 13, 3-[4-((3aS,9bR)-trans-9-Methoxy-1,2,3,3a,4,9b-hexahydro-[1]-benzopyrano[3,4-c]pyrrol-2-yl)butyl]-8-chloro-pyrazino[2',3':4,5]thieno[3,2-d]pyrimidine-2,4(1H,3H)-dione hydrochloride], the Ki was found to be 0.041 nM in assay [1], 2.49 nM in assay [2] and 0.112 nM in assay [3].

As for `COc1cccc2c1[C@@H]1CN(CCCCn3c(=O)[nH]c4c(sc5c(OC)ccnc54)c3=O)C[C@H]1CO2` [Example 17, 3-[4-((3aS,9bR)-trans-9-Methoxy-1,2,3,3a,4,9b-hexahydro-[1]-benzopyrano[3,4-c]pyrrol-2-yl)butyl]-6-methoxy-pyrido[2',3':4,5]thieno[3,2-d]pyrimidine-2,4(1H,3H)-dione dihydrochloride], the Ki in assay [1] was 0.068 nM; in assay [2] it was 1.25 nM; in assay [3], 0.19 nM.

Turning to `COc1cccc2c1[C@@H]1CN(CCCCn3c(=O)[nH]c4c(sc5c(OC)ccnc54)c3=O)C[C@@H]1CO2` [Example 18, 3-[4-((3aR,9bR)-cis-9-Methoxy-1,2,3,3a,4,9b-hexahydro[1]-benzopyrano[3,4-c]pyrrol-2-yl)butyl]-6-methoxy-pyrido[2',3':4,5]thieno[3,2-d]pyrimidine-2,4(1H,3H)-dione dihydrochloride], the Ki amounted to 0.069 nM in assay [1], 5.06 nM in assay [2] and 0.79 nM in assay [3].

With `COc1cccc2c1[C@@H]1CN(CCCCn3c(=O)[nH]c4c(sc5ccc(Cl)nc54)c3=O)C[C@H]1CO2` [Example 25, 3-[4-((3aS,9bR)-trans-9-Methoxy-1,2,3,3a,4,9b-hexahydro-[1]-benzopyrano[3,4-c]pyrrol-2-yl)butyl]-8-chloro-pyrido[2',3':4,5]thieno[3,2-d]pyrimidine-2,4(1H,3H)-dione dihydrochloride], the Ki in assay [1] was found to be 0.03 nM; in assay [2], 0.591 nM; in assay [3] it was 0.039 nM.

`COc1ccc2sc3c(=O)n(CCCCN4C[C@H]5COc6cccc(OC)c6[C@@H]5C4)c(=O)[nH]c3c2n1` [Example 26, 3-[4-((3aS,9bR)-trans-9-Methoxy-1,2,3,3a,4,9b-hexahydro-[1]-benzopyrano[3,4-c]pyrrol-2-yl)butyl]-8-methoxy-pyrido[2',3':4,5]thieno[3,2-d]pyrimidine-2,4(1H,3H)-dione hydrochloride]: the Ki turned out to be 0.022 nM in assay [1], 0.376 nM in assay [2] and 0.017 nM in assay [3].

As to `COc1cccc2c1[C@@H]1CN(CCCCn3c(=O)[nH]c4c(sc5ccncc54)c3=O)C[C@@H]1CO2` [Example 28, 3-[4-((3aR,9bR)-cis-9-Methoxy-1,2,3,3a,4,9b-hexahydro-[1]-benzopyrano[3,4-c]pyrrol-2-yl)butyl]-pyrido[3',4':4,5]thieno[3,2-d]pyrimidine-2,4(1H,3H)-dione dihydrochloride], the Ki in assay [1] was 0.092 nM; in assay [2], 3.69 nM; in assay [3] it was 0.195 nM.

For the compound `COc1cccc2c1[C@@H]1CN(CCCCn3c(=O)[nH]c4c(sc5cnccc54)c3=O)C[C@@H]1CO2` [Example 29, 3-[4-((3aR,9bR)-cis-9-Methoxy-1,2,3,3a,4,9b-hexahydro-[1]-benzopyrano[3,4-c]pyrrol-2-yl)butyl]-pyrido[4',3':4,5]thieno[3,2-d]pyrimidine-2,4(1H,3H)-dione dihydrochloride], the Ki in assay [1] turned out to be 0.095 nM; in assay [2] it was 3.69 nM; in assay [3], 0.466 nM.

Regarding `COc1ccc2sc3c(=O)n(CCCCN4C[C@@H]5COc6cccc(OC)c6[C@@H]5C4)c(=O)[nH]c3c2n1` [Example 30, 3-[4-((3aR,9bR)-cis-9-Methoxy-1,2,3,3a,4,9b-hexahydro-[1]-benzopyrano[3,4-c]pyrrol-2-yl)butyl]-8-methoxy-pyrido[2',3':4,5]thieno[3,2-d]pyrimidine-2,4(1H,3H)-dione hydrochloride], the Ki came out at 0.066 nM in assay [1], 2.67 nM in assay [2] and 0.222 nM in assay [3].

For `COc1cnc2sc3c(=O)n(CCCCN4C[C@@H]5COc6cccc(OC)c6[C@@H]5C4)c(=O)[nH]c3c2n1` [Example 31, 3-[4-((3aR,9bR)-cis-9-Methoxy-1,2,3,3a,4,9b-hexahydro-[1]-benzopyrano[3,4-c]pyrrol-2-yl)butyl]-8-methoxy-pyrazino[2',3':4,5]thieno[3,2-d]pyrimidine-2,4(1H,3H)-dione hydrochloride], the figures for the Ki in assay [1], in assay [2] and in assay [3] were 0.06 nM, 4.79 nM and 0.344 nM, respectively.

As to `COc1cccc2c1[C@@H]1CN(CCCCn3c(=O)[nH]c4c(sc5ncccc54)c3=O)C[C@@H]1CO2` [Example 34, 3-[4-((3aR,9bR)-cis-9-Methoxy-1,2,3,3a,4,9b-hexahydro-[1]-benzopyrano[3,4-c]pyrrol-2-yl)butyl]-pyrido[3',2':4,5]thieno[3,2-d]pyrimidine-2,4(1H,3H)-dione hydrochloride], the values for the Ki in assay [1], in assay [2] and in assay [3] were 0.079 nM, 3.37 nM and 0.339 nM, respectively.

As for `COc1cccc2c1[C@@H]1CN(CCCCn3c(=O)[nH]c4c(sc5nc(C)ccc54)c3=O)C[C@@H]1CO2` [Example 35, 3-[4-((3aR,9bR)-cis-9-Methoxy-1,2,3,3a,4,9b-hexahydro-[1]-benzopyrano[3,4-c]pyrrol-2-yl)butyl]-7-methyl-pyrido[3',2':4,5]thieno[3,2-d]pyrimidine-2,4(1H,3H)-dione hydrochloride], the Ki in assay [1] came to 0.057 nM; in assay [2], 5.12 nM; in assay [3], 0.436 nM.

As to `COc1cccc2c1[C@@H]1CN(CCCCn3c(=O)[nH]c4c(sc5nccc(OC)c54)c3=O)C[C@@H]1CO2` [Example 36, 3-[4-((3aR,9bR)-cis-9-Methoxy-1,2,3,3a,4,9b-hexahydro-[1]-benzopyrano[3,4-c]pyrrol-2-yl)butyl]-9-methoxy-pyrido[3',2':4,5]thieno[3,2-d]pyrimidine-2,4(1H,3H)-dione hydrochloride], the values for the Ki in assay [1], in assay [2] and in assay [3] were 0.124 nM, 2.85 nM and 0.36 nM, respectively.

For orientation: Ki means the equilibrium dissociation constant of an inhibitor or competing ligand from its target.
